Measured values published in patent US11471463B2, “Enhancers of cellular cannibalism for use to sensitize tumors to radiation therapy” (Institut Gustave-Roussy, priority 2017, dated 2022).
“Also recorded” adds a separate entry of the source. Structures can show the parent of a compound that is named as a salt.

How the values were obtained:
HCT116 cells = assay: Screening for enhancers of IR-mediated cellular cannibalism (imaging flow cytometry, confocal microscopy validation); assay type: cell-based, human; conditions: 8 Gray, 10 μM compound, 24 hours of culture
Description: FIG. 4 Identification of cannibalism modulators triggered by ionizing radiation. Compounds from the Prestwick (A) and CEA (F) libraries were tested for their capacities to induce cellular cannibalism after ionizing radiation. Cannibal cells were detected after homotypic cultures of 8 gray γ-irradiation HCT116 cells in the presence or absence of […] of the Prestwick (A) and CEA […] library compounds. Each dot represents one compound. Representative images are shown in (B, G). (C, H) HCT116 cells were treated with the indicated drugs. After 24 h of treatment, cell death was monitored by staining with 3,3 dihexyloxacarbocyanine iodide (DiOC6(3)) and PI, and the percentage of dying (DiOC6(3)^low PI^−, open bars) and dead (DiOC6(3)^low PI^+, closed bars) cells was determined by cytofluorometry. Validation of the cannibalism inducers by fluorescent microscopy. Representative images (D, I) and quantification (E, J) are shown. Results are means±s.e.m. of triplicate determinations.
Then, the screening of a library of chemical compounds was developed in order to identify compounds able to induce IR-mediated cellular cannibalism. Thus, HCT116 cells that have been treated with a radiation dose of 8 Gray were stained either with orange CMTMR cell tracker or green CMFDA cell tracker and cultivated in presence of 10 μM of chemical compounds. After 24 hours of culture, cells have been stained with nuclear dye (5 μg/ml of Hoechst 33342 during 1 h at 37° C.) and analyzed using the FlowSight® Imaging Flow Cytometer for cellular cannibalism. Each of these compounds were classified according to their Z-score^47 and identified respectively 13 and 11 candidate compounds (FIGS. 4A, 4B, 4F and 4G). Then, the identified compounds were validated by combining flow cytometry approaches (in order to eliminate cytotoxic compounds by simultaneously monitoring the depolarization of the internal mitochondrial membrane and the plasma membrane permeability of the treated cells) with confocal microscopy approaches (to confirm the modulation of IR-induced cellular cannibalism by candidate compounds) (FIGS. 4C-E and 4H-J). […] Finally, 16 chemical compounds that are able to enhance the capacity of IR to trigger cellular cannibalism were identified (FIGS. 4E and 4J, Tables 1&2).

CT26 cells = assay: Anti-tumor vaccination assay, treated CT26 cells inoculated into BALB/c mice and rechallenge; assay type: in vivo, mouse; conditions: for Frequency of mice showing a protective response: 8 Gy in presence of 10 μM compound for 24 hours; for Protective response after injection of cancer cells, compound alone: CT26 cells treated with 10 μM compound alone (no IR)
Description: FIG. 5. Identification of cannibalism modulators as immunogenic cell death inducers. MCA205 (A) or CT26 (E, I, M, Q) cells were treated with the indicated drugs. After 24 h of coculture with the indicated treatment, cell death was monitored by staining DiOC6(3) and PI, and the percentage of dying (DiOC6(3)^low PI^−, open bars) and dead (DiOC6(3)^low PI^+, closed bars) cells was determined by cytofluorometry. (B-D) MCA205 cells or (F-H, J-L, N-P, R-T) CT26 cells cocultured after x irradiation with the indicated compounds were inoculated subcutaneously into the right flank of […] or BALB/c mice, respectively. Seven days later, the mice were rechallenged with live cells injected into the opposite flank, and tumor growth was monitored (five mice per group).
FIG. 6. Tumor vaccination experiments. CT26 cells were treated for 24 hours with 10 μM VP331 (A, F, K), 10 μM Minaprine (B, G, L), 10 μM Lopa87 (C, H, M), 10 μM SG6163F (D, I, N), 10 μM Azaguanine-8 (8-aza) (E, J, O) alone or combined with 8 Gy ionizing radiation and inoculated (s.c.) into immunocompetent BALB/c mice, which were rechallenged at the opposite flank 7 days later with the same cancer cells. The percentage of tumor-free mice was evaluated three times a week for the following 38 days. Percentage of total tumor free mice (A-E), tumor free-mice at the first injection site (F to J, P) or at the second injection site (K to O, Q) are shown. (*P<0.05, **P<0.01, ***P<0.001, two-way ANOVA).
Considering that immunogenic cell death (ICD) inducers were identified (such as Digoxin, Digitoxin, Lanatoside C or Doxorubicin hydrochloride)^3, 4, 48-51) as IRCCE, the ability of these compounds to induce an antitumor immunity after radiotherapy was evaluated. First, a preclinical approaches was developed to study the immunological effects of IRCCE on two mouse models of carcinoma (colon CT26 carcinoma and fibrosarcoma MCA205). Initially, the ability of the combination of IRCCE+IR to trigger a specific anti-tumor immune response was appreciated using immunocompetent mice through anti-tumor vaccination assays. According to previously published studies^52, the injection of cancer cells succumbing to an immunogenic cell death (ICD) into immunocompetent mice must elicit a protective immune response that is specific for tumor antigens. Thus, 3×10^5 MCA205 cells were first treated with 10 μM of SG6163F for 24 hours. Then, treated cells were inoculated subcutaneously in 200 μl PBS into the lower flank of 8-week-old female C57BL/6 mice. One week later, 3×10^4 untreated control cells were inoculated into the contralateral flank of mice. Tumors were evaluated weekly using a common caliper. Animals bearing tumors that exceeded 20-25% body mass were euthanatized. […] Then, 3×10^6 CT26 cells were irradiated with 8 Gy in presence of 10 μM of SG6163F (FIGS. 5E and 5F), VP331 (FIGS. 5I and 5J), Minaprine dihydrochloride (FIGS. 5M and 5N) or LOPA87 (FIGS. 5Q and 5R) for 24 hours. Then, cells were inoculated as previously described subcutaneously in 200 μl PBS into the lower flank of 8-week-old female BALB/c mice. One week later, 5×10^5 untreated control cells were inoculated into the contralateral flank of mice and tumors were evaluated weekly using a common caliper. As previously mentioned, animals bearing tumors that exceeded 20-25% body mass were euthanatized. The percentage of dying cells in each condition was evaluated by determining with DiOC(6)3/IP staining (FIGS. 5E, 5I, 5M and 5Q). Finally, the ability of these compounds to repress the growth of cancer cells that have been injected 7 days after injection of irradiated and treated cancer cells was appreciated.
A second anti-tumor vaccination assay was done on CT26 mouse models of carcinoma as previously described. […]

[1] = first assay: CT26 cells, rechallenge one week later
[2] = second assay: CT26 cells, rechallenge 7 days later

Molecule: CC(=O)O[C@H]1C[C@H](O[C@H]2[C@@H](O)C[C@H](O[C@H]3[C@@H](O)C[C@H](O[C@H]4CC[C@@]5(C)[C@H](CC[C@@H]6[C@@H]5C[C@@H](O)[C@]5(C)[C@@H](C7=CC(=O)OC7)CC[C@]65O)C4)O[C@@H]3C)O[C@@H]2C)O[C@H](C)[C@H]1O[C@@H]1O[C@H](CO)[C@@H](O)[C@H](O)[C@H]1O [Lanatoside, Lanatoside C]
- Enhancement of IR-mediated cellular cannibalism (IRCCE) (HCT116 cells): efficient cellular cannibalism enhancer
- Enhancement of IR-mediated cellular cannibalism (IRCCE) (HCT116 cells; listed as Lanatoside C): IRCCE

Molecule: COc1cccc2c1C(=O)c1c(O)c3c(c(O)c1C2=O)C[C@@](O)(C(=O)CO)C[C@@H]3O[C@H]1C[C@H](N)[C@H](O)[C@H](C)O1.Cl [Doxorubicine hydrochloride, Doxorubicin hydrochloride]
- Enhancement of IR-mediated cellular cannibalism (IRCCE) (HCT116 cells; hydrochloride): efficient cellular cannibalism enhancer
- Enhancement of IR-mediated cellular cannibalism (IRCCE) (HCT116 cells; listed as Doxorubicin hydrochloride, hydrochloride): IRCCE

Molecule: CCOC(=O)n1ccn(C)c1=S [Carbimazole]
- Enhancement of IR-mediated cellular cannibalism (IRCCE) (HCT116 cells): no effect

Molecule: CN(C)c1ccc(-c2cc(=O)[nH]c(-c3ccccc3)n2)cc1 [LOPA87]
- Enhancement of IR-mediated cellular cannibalism (IRCCE) (HCT116 cells): efficient cellular cannibalism enhancer
- Frequency of mice showing a protective response (CT26 cells; [1]): significant increase in the frequency of mice showing a protective response
- Frequency of mice showing a protective response (CT26 cells; [2]): Significant increases in the frequency of mice showing a protective response

Molecule: COC(=O)Nc1nc2ccc(Sc3ccccc3)cc2[nH]1 [Fenbendazol]
- Enhancement of IR-mediated cellular cannibalism (IRCCE) (HCT116 cells): no effect

Molecule: Cc1cc(-c2ccccc2)nnc1NCCN1CCOCC1.Cl.Cl [Minaprine dihydrochloride]
- Enhancement of IR-mediated cellular cannibalism (IRCCE) (HCT116 cells): efficient cellular cannibalism enhancer
- Protective response after injection of cancer cells, compound alone (CT26 cells; dihydrochloride): induce an increase of protective response; also recorded: intrinsic protective effects against tumor development
- Frequency of mice showing a protective response (CT26 cells; [1]): significant increase in the frequency of mice showing a protective response
- Frequency of mice showing a protective response (CT26 cells; [2]): Significant increases in the frequency of mice showing a protective response

Molecule: COc1ccc(C)cc1/C=N/[C@@H]1C[C@@H]2C[C@H]([C@H]1C)C2(C)C [VP331]
- Enhancement of IR-mediated cellular cannibalism (IRCCE) (HCT116 cells): efficient cellular cannibalism enhancer
- Frequency of mice showing a protective response (CT26 cells; [1]): significant increase in the frequency of mice showing a protective response
- Frequency of mice showing a protective response (CT26 cells; [2]): Significant increases in the frequency of mice showing a protective response

Molecule: O=C(N/N=C/c1ncc[nH]1)NC12CC3CC(CC(C3)C1)C2 [VP450]
- Enhancement of IR-mediated cellular cannibalism (IRCCE) (HCT116 cells): efficient cellular cannibalism enhancer

Molecule: CC(C(=O)O)c1ccc(-c2ccccc2)c(F)c1 (stereo not drawn) [Flurbiprofen]
- Enhancement of IR-mediated cellular cannibalism (IRCCE) (HCT116 cells): efficient cellular cannibalism enhancer

Molecule: CN1CCc2c(c3ccccc3n2Cc2ccccc2)C1 [Mebhydroline 1,5-napthalene disulfonate salt]
- Enhancement of IR-mediated cellular cannibalism (IRCCE) (HCT116 cells): efficient cellular cannibalism enhancer

Molecule: C[C@H]1O[C@@H](O[C@H]2[C@@H](O)C[C@H](O[C@H]3[C@@H](O)C[C@H](O[C@H]4CC[C@@]5(C)[C@H](CC[C@@H]6[C@@H]5CC[C@]5(C)[C@@H](C7=CC(=O)OC7)CC[C@]65O)C4)O[C@@H]3C)O[C@@H]2C)C[C@H](O)[C@@H]1O [Digitoxin]
- Enhancement of IR-mediated cellular cannibalism (IRCCE) (HCT116 cells): IRCCE; also recorded: efficient cellular cannibalism enhancer

Molecule: CN1c2ccccc2C(=O)N(c2ccccc2)C1c1ccc(-c2csc(CO)c2)s1 (stereo not drawn) [VP43]
- Enhancement of IR-mediated cellular cannibalism (IRCCE) (HCT116 cells): efficient cellular cannibalism enhancer

Molecule: Myricetin
- Enhancement of IR-mediated cellular cannibalism (IRCCE) (HCT116 cells): efficient cellular cannibalism enhancer

Molecule: COc1cc(O)ccc1/C=N/c1ccccc1C(=O)Nc1ccccc1 [RN-1-026]
- Enhancement of IR-mediated cellular cannibalism (IRCCE) (HCT116 cells): efficient cellular cannibalism enhancer

Molecule: Nc1nc2[nH]nnc2c(=O)[nH]1 [8-Azaguanine]
- Enhancement of IR-mediated cellular cannibalism (IRCCE) (HCT116 cells): efficient cellular cannibalism enhancer
- Protective response after injection of cancer cells, compound alone (CT26 cells): induce an increase of protective response
- Frequency of mice showing a protective response (CT26 cells; [2]): Significant increases in the frequency of mice showing a protective response

Molecule: C[C@H]1O[C@@H](O[C@H]2[C@@H](O)C[C@H](O[C@H]3[C@@H](O)C[C@H](O[C@H]4CC[C@@]5(C)[C@H](CC[C@@H]6[C@@H]5C[C@@H](O)[C@]5(C)[C@@H](C7=CC(=O)OC7)CC[C@]65O)C4)O[C@@H]3C)O[C@@H]2C)C[C@H](O)[C@@H]1O [Digoxin]
- Enhancement of IR-mediated cellular cannibalism (IRCCE) (HCT116 cells): IRCCE; also recorded: efficient cellular cannibalism enhancer
